The text below walks through data of patent publication US20100240652A1, “Pyridine Derivatives as Sodium Channel Modulators” (Pfizer Inc, priority 2006, published 2010).

For the experiment, the target named is T1, Human NaV1.8 (Homo sapiens, UniProt Q9Y5Y9).
T1 construct: expressed in transfected cells
T1 sequence (Q9Y5Y9 whole entry): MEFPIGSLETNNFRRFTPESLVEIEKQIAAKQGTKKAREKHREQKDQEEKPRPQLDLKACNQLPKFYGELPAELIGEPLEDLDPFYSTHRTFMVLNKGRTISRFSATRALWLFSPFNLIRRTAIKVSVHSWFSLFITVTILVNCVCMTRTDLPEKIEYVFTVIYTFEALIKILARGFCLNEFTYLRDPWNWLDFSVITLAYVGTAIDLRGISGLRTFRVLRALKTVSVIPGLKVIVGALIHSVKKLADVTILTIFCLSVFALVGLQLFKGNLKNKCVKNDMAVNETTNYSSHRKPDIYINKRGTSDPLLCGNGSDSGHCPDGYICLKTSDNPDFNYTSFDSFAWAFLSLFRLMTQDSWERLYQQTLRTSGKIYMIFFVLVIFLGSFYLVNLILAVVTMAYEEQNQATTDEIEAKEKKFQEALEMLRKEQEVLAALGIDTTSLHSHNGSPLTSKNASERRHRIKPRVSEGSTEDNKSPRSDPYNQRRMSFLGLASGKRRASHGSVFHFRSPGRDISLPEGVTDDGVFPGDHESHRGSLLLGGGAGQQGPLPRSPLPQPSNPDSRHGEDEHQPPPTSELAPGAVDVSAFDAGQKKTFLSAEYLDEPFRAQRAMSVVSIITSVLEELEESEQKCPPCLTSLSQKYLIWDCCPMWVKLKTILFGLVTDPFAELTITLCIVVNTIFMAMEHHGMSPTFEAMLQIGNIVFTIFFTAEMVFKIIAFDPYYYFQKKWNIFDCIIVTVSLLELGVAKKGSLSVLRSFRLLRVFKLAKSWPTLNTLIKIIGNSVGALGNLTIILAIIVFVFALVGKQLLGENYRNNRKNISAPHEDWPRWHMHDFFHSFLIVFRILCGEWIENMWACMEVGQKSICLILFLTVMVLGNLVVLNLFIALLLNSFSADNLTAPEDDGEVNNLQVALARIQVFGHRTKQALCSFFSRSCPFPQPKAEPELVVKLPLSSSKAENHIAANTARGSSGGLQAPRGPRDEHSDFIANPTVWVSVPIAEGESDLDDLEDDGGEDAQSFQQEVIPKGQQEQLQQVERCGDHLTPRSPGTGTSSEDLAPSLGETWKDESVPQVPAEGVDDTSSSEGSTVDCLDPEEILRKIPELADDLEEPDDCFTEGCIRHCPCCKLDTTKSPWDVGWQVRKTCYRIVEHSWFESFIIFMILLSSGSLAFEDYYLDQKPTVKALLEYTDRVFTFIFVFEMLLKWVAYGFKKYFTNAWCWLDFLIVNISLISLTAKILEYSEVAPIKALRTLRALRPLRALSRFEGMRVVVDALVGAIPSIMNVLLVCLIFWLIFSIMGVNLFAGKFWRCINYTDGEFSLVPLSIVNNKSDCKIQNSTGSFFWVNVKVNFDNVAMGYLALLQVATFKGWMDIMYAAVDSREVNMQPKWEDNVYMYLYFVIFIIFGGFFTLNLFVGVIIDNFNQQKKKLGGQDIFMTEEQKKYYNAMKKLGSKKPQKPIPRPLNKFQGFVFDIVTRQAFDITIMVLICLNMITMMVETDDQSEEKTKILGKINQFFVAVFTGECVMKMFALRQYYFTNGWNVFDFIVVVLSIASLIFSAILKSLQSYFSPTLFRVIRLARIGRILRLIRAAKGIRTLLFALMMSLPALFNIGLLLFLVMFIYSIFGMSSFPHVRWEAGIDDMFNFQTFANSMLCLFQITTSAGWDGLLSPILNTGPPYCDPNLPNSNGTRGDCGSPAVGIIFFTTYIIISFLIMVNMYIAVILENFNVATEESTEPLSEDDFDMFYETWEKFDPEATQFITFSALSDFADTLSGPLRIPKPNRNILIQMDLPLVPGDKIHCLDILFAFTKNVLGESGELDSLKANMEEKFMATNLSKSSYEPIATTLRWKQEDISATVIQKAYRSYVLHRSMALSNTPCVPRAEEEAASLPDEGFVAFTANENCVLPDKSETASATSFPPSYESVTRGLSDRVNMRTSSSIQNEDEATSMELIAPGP
Description: VIPR assay for NaV1.8 compounds (FRET membrane potential). It is filed as cell-based. Conditions: Human NaV1.8 HEK293 expressing cell line, channels held open with deltamethrin. An excerpt: The ability of the pyridine derivatives of the formula (I) to inhibit the NaV1.8 channel may be measured using the assay described below.
VIPR Assay for NaV1.8 compounds
This screen is used to determine the effects of compounds on tetrodotoxin-resistant (TTX-R) sodium channels in Human NaV1.8— (HEK293) expressing cell line, utilising the technology of Aurora's fluorescent Voltage/Ion Probe Reader (VIPR). This experiment is based on FRET (Fluorescence Resonance Energy Transfer) and uses two fluorescent molecules. The first molecule, Oxonol (DiSBAC2(3)), is a highly fluorescent, negatively charged, hydrophobic ion that “senses” the trans-membrane electrical potential. In response to changes in membrane potential, it can rapidly redistribute between two binding sites on opposite sides of the plasma membrane. The voltage dependent redistribution is transduced into a ratiometric fluorescent readout via a second fluorescent molecule (Coumarin (CC2-DMPE)) that binds specifically to one face of the plasma membrane and functions as a FRET partner to the mobile voltage-sensing ion. To enable the assay to work, the channels have to be pharmacologically held in the open state. This is achieved by treating the cells with either deltamethrin (for NaV1.8) or veratridine (for the SHSY-5Y assay for TTX-S channels).
Human NaV1.8 cells are grown in T225 flasks, in a 5% CO2 humidified incubator to about 70% confluence. Media composition consists of DMEM/F-12, 10% FCS and 300 μg/ml Geneticine. They are split using cell dissociation fluid 1:5 to 1:20, depending on scheduling needs, and grown for 3-4 days before the next split.
Plate-out HEK-NaV1.8 cells (100 μl per well) into poly-D-lysine coated plates prior to experimentation as follows:—24 hours @ 3.5×10^4 cells/well (3.5×10^5 cells/ml) or using the technology of Select.
1. Equilibrate buffers at room temperature for 2 hours or at 37° C. for 30 minutes prior to experimentation. 2. Prepare Coumarin dye (see below) and store in dark. Prime the plate washer with Na^+ Free buffer and wash cells twice, Note: Plate washer deposits ˜30 μl residual buffer per well. Add 100 μL Coumarin (CC2-DMPE) solution (see below) to cells and incubate for 45 minutes at room temperature avoiding bright light. 3. Prepare Oxonol (DiSBAC2(3)) dye (see below): 4. Aspirate off Coumarin solution from the cells by washing in Na^+ Free buffer. 5. Add 30 μl compound then add 30 μl Oxonol solution to the cells and incubate for 45 minutes at room temperature in the dark (total well volume ˜90 μl). 6. Once the incubation is complete, the cells are ready to be assayed using the VIPR for sodium addback membrane potential.
The data was analyzed and reported as normalised ratios of intensities measured in the 460 nm and 580 nm channels. The process of calculating these ratios was performed as follows. An additional plate contained control solution with the same DisBAC2(3) concentrations as used in the cell plates, however no cells were included in the background plate. Intensity values at each wavelength were averaged for sample points 5-7 (initial) and 44-49 (final). These averages were subtracted from intensity values averaged over the same time periods in all assay wells. The initial ratio obtained from samples 3-8 (Ri) and the final ratio obtained from samples 45-50 (Rf) are defined as: […]
Final data are normalised to the starting ratio of each well and reported as Rf/Ri. This analysis is performed using a computerised specific programme designed for VIPR generated data. Rf/Ri ratio values are plotted using Excel Labstats (curve fit) or analysed via ECADA to determine an IC50 value for each compound.
Usually IC50 stands for the concentration that inhibits the measured activity by half. Lower therefore signals inhibition by little substance. For `C/N=C(\NC)c1ccc(-c2cc(Cl)cc(Cl)c2Cl)c(N)n1` [Example 3, 6-Amino-N,N′-dimethyl-5-(2,3,5-trichloro-phenyl)-pyridine-2-carboxamidine], the IC50 was 1820 nM.
Regarding `CNC(=S)c1ccc(-c2cc(Cl)cc(Cl)c2Cl)c(N)n1` [Example 1, 6-Amino-5-(2,3,5-trichloro-phenyl)-pyridine-2-carbothioic acid methylamide], the IC50 stood at 2930 nM.
The same measure for `C/N=C(\NCC(F)(F)F)c1ccc(-c2cc(Cl)cc(Cl)c2Cl)c(N)n1` [Example 6, 6-Amino-N-methyl-5-(2,3,5-trichloro-phenyl)-N′-(2,2,2-trifluoro-ethyl)-pyridine-2-carboxamidine]: 1330 nM; for `CN/C(=N\C#N)c1ccc(-c2cc(Cl)cc(Cl)c2Cl)c(N)n1` [Example 2, 6-Amino-N′-cyano-N-methyl-5-(2,3,5-trichlorophenyl)pyridine-2-carboximidamide]: 1630 nM; for `CNC(=N)c1ccc(-c2cc(Cl)cc(Cl)c2Cl)c(N)n1` [Example 7, 6-Amino-N-methyl-5-(2,3,5-trichloro-phenyl)-pyridine-2-carboxamidine]: 2400 nM.
To `CC/N=C(\NCC)c1ccc(-c2cc(Cl)cc(Cl)c2Cl)c(N)n1` [Example 5, 6-Amino-N,N′-diethyl-5-(2,3,5-trichloro-phenyl)-pyridine-2-carboxamidine] belongs 2940 nM; to `C/N=C(/c1ccc(-c2cc(Cl)cc(Cl)c2Cl)c(N)n1)N1CCOCC1` [Example 4, 6-(Methylimino-morpholin-4-yl-methyl)-3-(2,3,5-trichloro-phenyl)-pyridin-2-ylamine], 4580 nM.
